The values that follow come from patent publication US9242984B2, “Pyrazolyl derivatives as Syk inhibitors” (Merck Sharp & Dohme Corp., priority 2012, dated 2016).

The target of this assay is T1, recombinant human Syk (GST-hSyk fusion protein) (Homo sapiens, UniProt P43405).
T1 construct: purchased Carna Biosciences 08-176
As to the kind of experiment: Homogeneous Time-Resolved Fluorescence (HTRF) assay for the recombinant human Syk enzyme. The class given is biochemical. The note with it: 10-dose titration, 25 μM ATP. Put shortly:
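GST-hSyk (5 pM) preincubated 10 min with compound (0.1% DMSO) in 15 mM Tris-HCl pH 7.5, 2 mM DTT; reaction started with 250 nM biotinylated peptide, 5 mM Mg, 25 μM ATP, 45 min, room temperature. EDTA quench, Eu-anti-phosphotyrosine/SA-APC HTRF read after 30 min; IC50 from 10-dose titration (10 μM–0.508 nM), four-parameter fit.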
A general note: In TR-FRET formats the signal depends on donor and acceptor labels being close together.

[1] abbreviates: IC50 class, read-out: rhSYK Activity.

Molecules are shown by their SMILES. Like-named read-outs stand apart in the source and are kept apart here.

Take `Cc1cc(Nc2nccc(C(F)(F)F)n2)cc(-c2cnn(C3CCCC(O)C3O)c2)c1` (stereo not drawn) [Example 10.3]: the IC50 under setting [1] was no more than 100 nM.

On to `Cc1cc(Nc2nccc(C)n2)cc(-c2cnn(C3CCCC(O)C3O)c2)c1` (stereo not drawn) [Example 10.8, 3-(4-{3-methyl-5-[(4-methylpyrimidin-2-yl)amino]phenyl}-1H-pyrazol-1-yl)cyclohexane-1,2-diol], for which the IC50 was 7.8 nM (read-out: rhSYK IC50) and no more than 100 nM under setting [1]. The like results for `Cc1cc(Nc2nccc(C)n2)cc(-c2cnn(C3CCCC(O)C3O)c2)c1` (stereo not drawn) [Example 10.9, 3-(4-{3-methyl-5-[(4-methylpyrimidin-2-yl)amino]phenyl}-1H-pyrazol-1-yl)cyclohexane-1,2-diol] were, in that order, 4.8 nM and no more than 100 nM. The like results for `Cc1cc(Nc2nccc(C)n2)cc(-c2cnn(C3CCCC(O)C3O)c2)c1` (stereo not drawn) [Example 10.10, 3-(4-{3-methyl-5-[(4-methylpyrimidin-2-yl)amino]phenyl}-1H-pyrazol-1-yl)cyclohexane-1,2-diol] were, in that order, 29.4 nM and no more than 100 nM. The like results for `Cc1cc(Nc2nccc(C3CC3)n2)cc(-c2cnn(C[C@@H](O)C(=O)O)c2)c1` [Example 11.1, (R)-3-(4-(3-(4-cyclopropylpyrimidin-2-ylamino)-5-methylphenyl)-1H-pyrazol-1-yl)-2-hydroxypropanoic acid] were, in that order, 6.2 nM and no more than 100 nM. With `COc1ccnc(Nc2cc(C)cc(-c3cnn(C[C@H](O)C(=O)O)c3)c2)n1` [Example 11.2, (2S)-2-hydroxy-3-(4-{3-[(4-methoxy-pyrimidin-2-yl)amino]-5-methylphenyl}-1H-pyrazol-1-yl)-propanoic acid], under setting [1], the IC50 is no more than 100 nM. The same measure, in the same setting: with `Cc1cc(Nc2nccc(C)n2)cc(-c2cnn(C[C@H](O)C(=O)O)c2)c1` [Example 11.3, (2S)-2-hydroxy-3-(4-{3-methyl-5-[(4-methylpyrimidin-2-yl)amino]phenyl}-1H-pyrazol-1-yl)-propanoic acid] the figure was no more than 100 nM.

Consider `COc1ccnc(Nc2cccc(-c3cnn(C[C@H](O)C(=O)O)c3)c2)n1` [Example 11.4, (2S)-2-hydroxy-3-(4-{3-[(4-methoxy-pyrimidin-2-yl)-amino]phenyl}-1H-pyrazol-1-yl)-propanoic acid], for which, under setting [1], the IC50 was no more than 100 nM.

As for `Cc1cc(Nc2nccc(C3CC3)n2)cc(-c2cnn(C[C@H](O)C(=O)O)c2)c1` [Example 11.5, (2S)-3-(4-{3-[(4-cyclopropylpyrimidin-2-yl)amino]-5-methyl-phenyl}-1H-pyrazol-1-yl)-2-hydroxy-propanoic acid], the IC50 under setting [1] is no more than 100 nM. For the molecule `COc1nc(Nc2cc(C)cc(-c3cnn(C[C@H](O)C(=O)O)c3)c2)ncc1Cl` [Example 11.6, (2S)-3-(4-{3-[(5-chloro-4-methoxy-pyrimidin-2-yl)-amino]-5-methyl-phenyl}-1H-pyrazol-1-yl)-2-hydroxy-propanoic acid], the IC50 under setting [1] was no more than 100 nM. On the same count and under the same terms, with `Cc1cc(Nc2ncc(Cl)c(C)n2)cc(-c2cnn(C[C@@H](O)C(=O)O)c2)c1` [Example 11.7, (2R)-3-(4-{3-[(5-chloro-4-methyl-pyrimidin-2-yl)-amino]-5-methyl-phenyl}-1H-pyrazol-1-yl)-2-hydroxy-propanoic acid] the figure was no more than 100 nM. On the same count and under the same terms, with `COc1ccnc(Nc2cc(C)cc(-c3cnn(C[C@@H](O)C(=O)O)c3)c2)n1` [Example 11.8, (2R)-2-hydroxy-3-(4-{3-[(4-methoxy-pyrimidin-2-yl)-amino]-5-methyl-phenyl}-1H-pyrazol-1-yl)propanoic acid] the figure was no more than 100 nM. As to `COc1nc(Nc2cc(C)cc(-c3cnn(C[C@@H](O)C(=O)O)c3)c2)ncc1Cl` [Example 11.9, (2R)-3-(4-{3-[(5-chloro-4-methoxy-pyrimidin-2-yl)-amino]-5-methyl-phenyl}-1H-pyrazol-1-yl)-2-hydroxy-propanoic acid], under setting [1], the IC50 was no more than 100 nM. Still for that read-out and setting: with `Cc1cc(Nc2nccc(C)n2)cc(-c2cnn(C[C@@H](O)C(=O)O)c2)c1` [Example 11.10, (2R)-2-hydroxy-3-(4-{3-methyl-5-[(4-methylpyrimidin-2-yl)amino]phenyl}-1H-pyrazol-1-yl)propanoic acid] the figure was no more than 100 nM; with `COc1ccnc(Nc2cccc(-c3cnn(C[C@@H](O)C(=O)O)c3)c2)n1` [Example 11.11, (2R)-2-hydroxy-3-(4-{3-[(4-methoxy-pyrimidin-2-yl)amino]phenyl}-1H-pyrazol-1-yl)propanoic acid], no more than 100 nM; with `Cc1cc(Nc2ncc(F)c(C)n2)cc(-c2cnn(C[C@@H](O)C(=O)O)c2)c1` [Example 11.13, (2R)-3-(4-{3-[(5-fluoro-4-methylpyrimidin-2-yl)amino]-5-methylphenyl}-1H-pyrazol-1-yl)-2-hydroxypropanoic acid], no more than 100 nM. Same read-out and setting: the result for `Cc1cc(Nc2nccc(OC(C)C)n2)cc(-c2cnn(C[C@@H](O)C(=O)O)c2)c1` [Example 11.14, (2R)-2-hydroxy-3-[4-(3-methyl-5-{[4-(1-methylethoxy)-pyrimidin-2-yl]amino}-phenyl)-1H-pyrazol-1-yl]propanoic acid] reads no more than 100 nM; that for `COc1nc(Nc2cc(C)cc(-c3cnn(C[C@@H](O)C(=O)O)c3)c2)ncc1Cl` [Example 11.15, (2R)-3-(4-{3-[(5-chloro-4-methoxy-pyrimidin-2-yl)amino]-5-methyl-phenyl}-1H-pyrazol-1-yl)-2-hydroxy-propanoic acid], no more than 100 nM. Still for that read-out and setting: the result for `Cc1cc(Nc2nccc(C(C)C)n2)cc(-c2cnn(C[C@@H](O)C(=O)O)c2)c1` [Example 11.16, (2R)-2-hydroxy-3-[4-(3-methyl-5-{[4-(1-methylethyl)-pyrimidin-2-yl]amino}phenyl)-1H-pyrazol-1-yl]propanoic acid] reads no more than 100 nM; that for `Cc1cc(Nc2nccc(C(F)(F)F)n2)cc(-c2cnn(C[C@H](O)C(=O)O)c2)n1` [Example 11.18, (2S)-2-hydroxy-3-[4-(6-methyl-4-{[4-(trifluoro-methyl)pyrimidin-2-yl]amino}pyridin-2-yl)-1H-pyrazol-1-yl]propanoic acid], no more than 100 nM.

For `Cc1ccnc(Nc2cc(C)nc(-c3cnn(C[C@@H](O)C(=O)O)c3)n2)c1` [Example 11.19, (2R)-2-hydroxy-3-(4-{4-methyl-6-[(4-methyl-pyridin-2-yl)amino]-pyrimidin-2-yl}-1H-pyrazol-1-yl)propanoic acid], the IC50 under setting [1] is 100 to 1000 nM. Same read-out and setting: the result for `Cc1cc(Nc2nccc(C(F)(F)F)n2)cc(-c2cnn(C[C@@H](O)C(=O)O)c2)n1` [Example 11.20, (2R)-2-hydroxy-3-[4-(6-methyl-4-{[4-(trifluoro-methyl)pyrimidin-2-yl]amino}pyridin-2-yl)-1H-pyrazol-1-yl]propanoic acid] reads no more than 100 nM. As to `Cc1cc(Nc2nccc(C(F)(F)F)n2)cc(-c2cnn(CC3(O)CCNCC3)c2)c1` [Example 12.1, 4-((4-(3-methyl-5-((4-(trifluoromethyl)pyrimidin-2-yl)amino)phenyl)-1H-pyrazol-1-yl)methyl)piperidin-4-ol], the IC50 was 110 nM (read-out: rhSYK IC50) and 100 to 1000 nM under setting [1]. For `Cc1cc(Nc2nccc(C(F)(F)F)n2)cc(-c2cnn(CC3(O)CCC3)c2)c1` [Example 12.2, 1-{[4-(3-methyl-5-{[4-(trifluoro-methyl)pyrimidin-2-yl]amino}-phenyl)-1H-pyrazol-1-yl]-methyl}-cyclobutanol], the IC50 under setting [1] was no more than 100 nM. The same measure, in the same setting: the result for `COC1CC(O)(Cn2cc(-c3cc(C)cc(Nc4nccc(C)n4)c3)cn2)C1` (stereo not drawn) [Example 12.3, 3-methoxy-1-[(4-{3-methyl-5-[(4-methylpyrimidin-2-yl)amino]phenyl}-1H-pyrazol-1-yl)methyl]-cyclobutanol] reads no more than 100 nM; that for `Cc1cc(Nc2nccc(C(F)(F)F)n2)cc(-c2cnn(CC3(O)CCN(CC(=O)OC(C)(C)C)CC3)c2)c1` [Example 12.4, tert-butyl (4-hydroxy-4-{[4-(3-methyl-5-{[4-(trifluoro-methyl)pyrimidin-2-yl]amino}phenyl)-1H-pyrazol-1-yl]methyl}-piperidin-1-yl)acetate], 100 to 1000 nM.

With `Cc1cc(Nc2nccc(C(F)(F)F)n2)cc(-c2cnn(CC3(O)CCOCC3)c2)c1` [Example 12.5, 4-{[4-(3-methyl-5-{[4-(trifluoromethyl)pyrimidin-2-yl]amino}phenyl)-1H-pyrazol-1-yl]methyl}-tetrahydro-2H-pyran-4-ol], the IC50 under setting [1] is no more than 100 nM. Still for that read-out and setting: with `Cc1cc(Nc2nccc(C(F)(F)F)n2)cc(-c2cnn(CC3(O)CCC(C(=O)O)C(C)(C)C3)c2)c1` (stereo not drawn) [Example 12.6, 4-hydroxy-2,2-dimethyl-4-{[4-(3-methyl-5-{[4-(trifluoromethyl)pyrimidin-2-yl]amino}phenyl)-1H-pyrazol-1-yl]methyl}-cyclohexanecarboxylic acid] the figure was no more than 100 nM; with `Cc1cc(Nc2nccc(C(F)(F)F)n2)cc(-c2cnn(CC3(O)CCCOC3)c2)c1` (stereo not drawn) [Example 12.7, 3-{[4-(3-methyl-5-{[4-(trifluoromethyl)pyrimidin-2-yl]amino}phenyl)-1H-pyrazol-1-yl]methyl}-tetrahydro-2H-pyran-3-ol], no more than 100 nM; with `Cc1cc(Nc2nccc(C(F)(F)F)n2)cc(-c2cnn(C[C@@]3(O)C[C@@H](C)O[C@@H](C)C3)c2)c1` [Example 12.8, meso (2R,4S,6S)-2,6-dimethyl-4-{[4-(3-methyl-5-{[4-(trifluoro-methyl)pyrimidin-2-yl]amino}phenyl)-1H-pyrazol-1-yl]methyl}-tetrahydro-2H-pyran-4-ol], no more than 100 nM. On the same count and under the same terms, with `Cc1cc(Nc2nccc(C(F)(F)F)n2)cc(-c2cnn(CC3(O)CCOC(C)(C)C3)c2)c1` (stereo not drawn) [Example 12.9, 2,2-dimethyl-4-{[4-(3-methyl-5-{[4-(trifluoro-methyl)pyrimidin-2-yl]amino}phenyl)-1H-pyrazol-1-yl]methyl}-tetrahydro-2H-pyran-4-ol] the figure was no more than 100 nM.
